These results are taken from PMC6420026, “TLR9-mediated dendritic cell activation uncovers mammalian ganglioside species with specific ceramide backbones that activate invariant natural killer T cells” (PLoS Biology, 2019).

SMILES strings stand for the structures. Read-outs that look alike come from different tables or passages of the source.

This assay deals with T1, mouse CD1d (mCD1d) (Mus musculus, UniProt P11609).
T1 construct: gene Cd1d1
T1 sequence (P11609 22-305 limits assumed): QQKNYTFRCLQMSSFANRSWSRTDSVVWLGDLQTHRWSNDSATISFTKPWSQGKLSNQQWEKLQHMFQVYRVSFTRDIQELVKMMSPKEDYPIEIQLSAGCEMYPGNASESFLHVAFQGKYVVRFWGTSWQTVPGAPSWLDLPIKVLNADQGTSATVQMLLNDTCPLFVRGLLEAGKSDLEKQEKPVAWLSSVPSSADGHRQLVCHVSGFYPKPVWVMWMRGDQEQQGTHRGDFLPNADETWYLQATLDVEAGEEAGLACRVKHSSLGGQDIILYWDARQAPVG
T1 sequence (P01887 21-119 partner): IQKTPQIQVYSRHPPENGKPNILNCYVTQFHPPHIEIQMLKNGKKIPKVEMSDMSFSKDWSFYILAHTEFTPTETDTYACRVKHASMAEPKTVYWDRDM
The assay can be described thus: microscale thermophoresis. The format is binding. On the technique in general: MST reads how a fluorescent partner responds to local heating, with and without ligand.

On to `CCCCCCCC/C=C\CCCCCCCCCCCCCC(=O)N[C@@H](CO[C@@H]1O[C@H](CO)[C@@H](O[C@@H]2O[C@H](CO)[C@H](O)[C@H](O[C@]3(C(=O)O)C[C@H](O)[C@@H](NC(C)=O)[C@H]([C@H](O)[C@@H](CO)O[C@]4(C(=O)O)C[C@H](O)[C@@H](NC(C)=O)[C@H]([C@H](O)[C@H](O)CO)O4)O3)[C@H]2O)[C@H](O)[C@H]1O)[C@H](O)/C=C/CCCCCCCCCCCCC` [C24:1 GD3], for which binding (NT-647-labelled mCD1d 125 nM, PBS 25 mM, 0.05% Tyloxapol, up to 5% DMSO, 1:1 fit, labelled protein) was characterised by a dissociation constant (Kd) of 69.1 ± 1.5 µM. Regarding `CCCCCCCC/C=C\CCCCCCCCCCCCCC(=O)N[C@@H](CO[C@@H]1O[C@H](CO)[C@@H](O[C@@H]2O[C@H](CO)[C@H](O)[C@H](O[C@]3(C(=O)O)C[C@H](O)[C@@H](NC(C)=O)[C@H]([C@H](O)[C@H](O)CO)O3)[C@H]2O)[C@H](O)[C@H]1O)[C@H](O)/C=C/CCCCCCCCCCCCC` [C24:1 GM3], binding was characterised by a dissociation constant (Kd) of 102 ± 2.3 µM. For `CCCCCCCC/C=C\CCCCCCCCCCCCCC(=O)N[C@@H](CO[C@@H]1O[C@H](CO)[C@@H](O)[C@H](O)[C@H]1O)[C@H](O)/C=C/CCCCCCCCCCCCC` [C24:1 β-GlcCer], the Kd – broadly, the concentration at which binding is half-saturated – was 2540 µM. Compared with the last molecule, the Kd is about 25-fold higher.
